Reference: the NIST ThermoML archive (doi:10.1016/j.jct.2018.03.013)

Assay: xn = mol fraction of the nth substance listed
Conditions: 100 kPa, Liquid; for speed of sound: Frequency=3 MHz, Linear variable-path acoustic interferometer; for mass density: Pycnometric method

C=C(C)C(=O)OCC [ethyl 2-methylpropenoate] + CC#N
Conditions | mass density [kg/m3] | speed of sound [m/s]
293.15 K, x2 = 0 | 912.3 | 1196.8
293.15 K, x2 = 0.0556 | 909.47 | 1200.9
293.15 K, x2 = 0.1112 | 906.38 | 1205
293.15 K, x2 = 0.1631 | 903.24 | 1208.8
293.15 K, x2 = 0.2147 | 899.86 | 1212.6
293.15 K, x2 = 0.2795 | 895.21 | 1217.4
293.15 K, x2 = 0.3446 | 890.04 | 1222.2
293.15 K, x2 = 0.4132 | 883.98 | 1227.4
293.15 K, x2 = 0.4819 | 877.18 | 1232.8
293.15 K, x2 = 0.5597 | 868.44 | 1239.5
293.15 K, x2 = 0.6375 | 858.38 | 1246.9
293.15 K, x2 = 0.7251 | 845.11 | 1256.4
293.15 K, x2 = 0.8113 | 829.5 | 1267.7
293.15 K, x2 = 0.9014 | 809.62 | 1282.6
293.15 K, x2 = 0.9542 | 795.78 | 1293.4
298.15 K, x2 = 0 | 907.18 | 1176.9
298.15 K, x2 = 0.0556 | 904.36 | 1181
298.15 K, x2 = 0.1112 | 901.28 | 1185.1
298.15 K, x2 = 0.1631 | 898.14 | 1188.8
298.15 K, x2 = 0.2147 | 894.76 | 1192.5
298.15 K, x2 = 0.2795 | 890.11 | 1197.2
298.15 K, x2 = 0.3446 | 884.94 | 1201.9
298.15 K, x2 = 0.4132 | 878.87 | 1207
298.15 K, x2 = 0.4819 | 872.05 | 1212.3
298.15 K, x2 = 0.5597 | 863.29 | 1218.8
298.15 K, x2 = 0.6375 | 853.22 | 1226
298.15 K, x2 = 0.7251 | 839.92 | 1235.4
298.15 K, x2 = 0.8113 | 824.27 | 1246.5
298.15 K, x2 = 0.9014 | 804.36 | 1261.1
298.15 K, x2 = 0.9542 | 790.5 | 1271.8
303.15 K, x2 = 0 | 902.06 | 1157.6
303.15 K, x2 = 0.0556 | 899.25 | 1161.8
303.15 K, x2 = 0.1112 | 896.18 | 1165.9
303.15 K, x2 = 0.1631 | 893.05 | 1169.6
303.15 K, x2 = 0.2147 | 889.66 | 1173.3
303.15 K, x2 = 0.2795 | 885.01 | 1177.9
303.15 K, x2 = 0.3446 | 879.82 | 1182.6
303.15 K, x2 = 0.4132 | 873.74 | 1187.7
303.15 K, x2 = 0.4819 | 866.92 | 1193
303.15 K, x2 = 0.5597 | 858.14 | 1199.5
303.15 K, x2 = 0.6375 | 848.05 | 1206.7
303.15 K, x2 = 0.7251 | 834.72 | 1216.2
303.15 K, x2 = 0.8113 | 819.05 | 1227.4
303.15 K, x2 = 0.9014 | 799.1 | 1242.2
303.15 K, x2 = 0.9542 | 785.22 | 1252.9
308.15 K, x2 = 0 | 896.94 | 1139.4
308.15 K, x2 = 0.0556 | 894.14 | 1143.6
308.15 K, x2 = 0.1112 | 891.07 | 1147.7
308.15 K, x2 = 0.1631 | 887.95 | 1151.4
308.15 K, x2 = 0.2147 | 884.57 | 1155
308.15 K, x2 = 0.2795 | 879.91 | 1159.6
308.15 K, x2 = 0.3446 | 874.71 | 1164.3
308.15 K, x2 = 0.4132 | 868.61 | 1169.3
308.15 K, x2 = 0.4819 | 861.78 | 1174.6
308.15 K, x2 = 0.5597 | 852.99 | 1181
308.15 K, x2 = 0.6375 | 842.87 | 1188.1
308.15 K, x2 = 0.7251 | 829.52 | 1197.5
308.15 K, x2 = 0.8113 | 813.82 | 1208.6
308.15 K, x2 = 0.9014 | 793.83 | 1223.4
308.15 K, x2 = 0.9542 | 779.93 | 1234.1
313.15 K, x2 = 0 | 891.83 | 1121.5
313.15 K, x2 = 0.0556 | 889.04 | 1125.6
313.15 K, x2 = 0.1112 | 885.98 | 1129.8
313.15 K, x2 = 0.1631 | 882.85 | 1133.5
313.15 K, x2 = 0.2147 | 879.47 | 1137.1
313.15 K, x2 = 0.2795 | 874.81 | 1141.7
313.15 K, x2 = 0.3446 | 869.6 | 1146.3
313.15 K, x2 = 0.4132 | 863.49 | 1151.3
313.15 K, x2 = 0.4819 | 856.64 | 1156.5
313.15 K, x2 = 0.5597 | 847.83 | 1162.9
313.15 K, x2 = 0.6375 | 837.7 | 1169.9
313.15 K, x2 = 0.7251 | 824.32 | 1179.2
313.15 K, x2 = 0.8113 | 808.59 | 1190.3
313.15 K, x2 = 0.9014 | 788.57 | 1205
313.15 K, x2 = 0.9542 | 774.64 | 1215.7
318.15 K, x2 = 0 | 886.71 | 1104.6
318.15 K, x2 = 0.0556 | 883.94 | 1108.7
318.15 K, x2 = 0.1112 | 880.88 | 1112.8
318.15 K, x2 = 0.1631 | 877.75 | 1116.5
318.15 K, x2 = 0.2147 | 874.37 | 1120.1
318.15 K, x2 = 0.2795 | 869.7 | 1124.6
318.15 K, x2 = 0.3446 | 864.49 | 1129.2
318.15 K, x2 = 0.4132 | 858.37 | 1134.1
318.15 K, x2 = 0.4819 | 851.5 | 1139.2
318.15 K, x2 = 0.5597 | 842.68 | 1145.4
318.15 K, x2 = 0.6375 | 832.52 | 1152.3
318.15 K, x2 = 0.7251 | 819.12 | 1161.4
318.15 K, x2 = 0.8113 | 803.35 | 1172.3
318.15 K, x2 = 0.9014 | 783.3 | 1186.7
318.15 K, x2 = 0.9542 | 769.35 | 1197.3
